Laboratory results reported in ChEMBL document CHEMBL4725274 (Bioorg Med Chem Lett, 2020).
Active and inactive are the calls of the source. No cut-off for these calls is given here. Where a SMILES comes first, the peptide text is derived from it. The star is where a group is joined. Stearoyl = CCCCCCCCCCCCCCCCCC(=O)*

How the values were obtained:
[1] = Drug uptake in HEK293 cells at 1 uM incubated for 1 hr by confocal microscopy analysis; format: ADME, cell-based; conditions: human, hek293, 1 h
HEK293 [2] = test: Cytotoxicity against HEK293 cells assessed as reduction in cell viability incubated for 96 hrs by MTT assay; format: cell-based; conditions: Homo sapiens, HEK293, 96 h
[3] = target: Substance-P receptor (Homo sapiens) (UniProt P25103); test: Binding affinity to NK1R (unknown origin) expressed in HEK293 cells assessed as reduction in cell viability in presence of p53 plasmid at N/P ratio of 2 incubated for 96 hrs by MTT assay relative to control; format: cell-based
[4] = target: Substance-P receptor (Homo sapiens) (UniProt P25103); test: Binding affinity to NK1R (unknown origin) expressed in HEK293 cells assessed as reduction in cell viability in presence of p53 plasmid at N/P ratio of 3 incubated for 96 hrs by MTT assay relative to control; format: cell-based
HEK293 [5] = test: Cytotoxicity against HEK293 cells assessed as reduction in cell viability in presence of p53 plasmid at N/P ratio of 0.5 to 3 incubated for 96 hrs by MTT assay; format: cell-based; conditions: human, hek293, 96 h
HEK293 [6] = test: Activation of luciferase (unknown origin) expressed in HEK293 cells in presence of pGL3 plasmid incubated for 30 mins by luciferase reporter gene assay; format: cell-based
[7] = target: Substance-P receptor (Homo sapiens) (UniProt P25103); test: Binding affinity to NK1R (unknown origin) expressed in HEK293 cells assessed as reduction in cell viability in presence of p53 plasmid at N/P ratio of 1 incubated for 96 hrs by MTT assay relative to control; format: cell-based
[8] = Drug uptake in HEK293 cells at 1 uM incubated for 1 hr by flow cytometry analysis; format: ADME, cell-based; conditions: human, hek293, 1 h
[9] = target: Substance-P receptor (Homo sapiens) (UniProt P25103); test: Binding affinity to NK1R (unknown origin) expressed in HEK293 cells assessed as reduction in cell viability in presence of p53 plasmid at N/P ratio of 0.5 to 3 incubated for 96 hrs by MTT assay; format: cell-based

Chain of Substance-P receptor (Homo sapiens) (P25103 whole entry): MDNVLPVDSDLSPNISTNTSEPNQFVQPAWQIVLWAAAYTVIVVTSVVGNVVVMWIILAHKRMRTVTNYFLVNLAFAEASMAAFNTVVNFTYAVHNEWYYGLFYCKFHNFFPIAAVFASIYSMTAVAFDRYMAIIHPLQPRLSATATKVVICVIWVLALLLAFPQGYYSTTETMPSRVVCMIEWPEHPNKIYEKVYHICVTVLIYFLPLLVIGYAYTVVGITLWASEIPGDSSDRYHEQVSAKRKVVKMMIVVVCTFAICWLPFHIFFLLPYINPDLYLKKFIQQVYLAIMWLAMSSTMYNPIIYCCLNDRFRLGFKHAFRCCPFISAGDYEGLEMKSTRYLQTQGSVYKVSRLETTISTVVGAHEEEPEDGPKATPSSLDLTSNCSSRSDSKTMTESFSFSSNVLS

CCCCCCCCCCCCCCCCCC(=O)N[C@@H](CCCCN)C(=O)N[C@@H](Cc1c[nH]c2ccccc12)C(=O)N[C@@H](CCCCN)C(=O)N[C@@H](CC(C)C)C(=O)N[C@@H](CCC(=O)O)C(=O)N[C@@H](CCCCN)C(=O)N[C@@H](CCCCN)C(=O)N[C@H](C(=O)NCC(=O)N[C@@H](C)C(=O)N[C@H](C(=O)N[C@@H](CC(C)C)C(=O)N[C@H](C(=O)N[C@@H](CS)C(=O)N[C@H](C(=O)N[C@@H](CC(C)C)C(=O)N[C@@H](CCCNC(=N)N)C(=O)N1CCC[C@H]1C(=O)N[C@@H](CCCCN)C(=O)N1CCC[C@H]1C(=O)N[C@@H](CCC(N)=O)C(=O)N[C@@H](CCC(N)=O)C(=O)N[C@@H](Cc1ccccc1)C(=O)N[C@@H](Cc1ccccc1)C(=O)NCC(=O)N[C@@H](CC(C)C)C(=O)N[C@@H](CCSC)C(N)=O)C(C)C)[C@@H](C)CC)C(C)C)[C@@H](C)CC (Stearoyl-KWKLEKKIGAVLICVLRPKPQQFFGLM-NH2)
Drug uptake [1]: Active | EC50 (HEK293 [2]): 7.5 µM | Activity [3]: 66.7% | Activity [4]: 70.2% | Activity (HEK293 [5]): Active | Activity (HEK293 [6]): inactive | Activity [7]: 51.6% | Drug uptake [8]: Active | Activity [9]: Active
